Drawing on patent US20260364080A1, “PYRAZOLO-PYRIMIDINONE COMPOUNDS FOR USE IN METHODS OF INHIBITING WEE1 A KINASE” (Acrivon Therapeutics, Inc., priority 2023, published 2026), this text covers IC50 and EC50 for 15 compounds.

The term IC50 denotes the concentration needed to halve the response being measured. A word on the EC50: it is the concentration giving half of the maximal effect.

Assay [1] concerns the target T1, recombinant human Wee1A kinase (Homo sapiens, UniProt P30291).
T1 construct: full length Wee1 kinase was expressed by baculovirus in insect cells; purchased Invitrogen PV3817; host or cells: insect cells (baculovirus)
Nature of the assay: Wee1A kinase binding assay (LanthaScreen Eu time-resolved FRET). On the procedure: This time resolved-FRET binding assay was performed in white 384-well low volume plates (Greiner, cat #784075), at room temperature in kinase buffer A (KBA; Invitrogen cat #PV3189), consisting of 50 mM HEPES-NaOH (pH 7.5), 0.01% Brij-35, 10 mM MgCl2, and 1 mM EGTA. 5 μL of compound (diluted in reaction buffer, to 1% DMSO) were added to various wells in the plate, followed by 5 μL each of recombinant human Wee1A kinase (full length Wee1 kinase was expressed by baculovirus in insect cells using a N-terminal GST tag (MW: 99.1 kDa) (Invitrogen cat #PV3817) and LanthaScreen Eu-anti-GST antibody (Invitrogen, cat #PV5594). After this, 5 μL of kinase tracer 178 (Invitrogen, cat #PV5593) was added to the plate and the plate was incubated for 60 minutes at room temperature. The final assay conditions in each well were: 30 nM tracer 178, 5 nM Wee1A kinase and 2 nM Eu-labeled antibody in total assay volume of 15 μL. An Envision 2104 (Perkin-Elmer) Plate Reader with the following time-resolve fluorescence setting was used for performing LanthaScreen kinase binding assay. • Excitation 320 nm (30 nm bandpass) • Kinase Tracer Emission 665 nm (10 nm bandpass) • LanthaScreen Eu-anti-Tag Antibody Emission 615 nm (10 nm bandpass) • Dichroic Mirror Instrument dependent • Delay Time 100 μs • Integration Time 200 μs
(§1) To calculate the emission ratio, the acceptor/tracer emission ([…]) was divided by the antibody/donor emission ([…]) and the average of duplicate measurement was used for calculations. Data plotting, analysis of binding, and curve fitting was done using Excel add-in XLfit version 5.5.0.5 (IDBS, Guildford, United Kingdom). […] “NT” means not tested.

In assay [2] the target is T2, Wee1A kinase (CDK1 Tyr15 phosphorylation in ACHN renal cell carcinoma cells) (Homo sapiens, UniProt P30291).
T2 construct: pCDK1 Tyr15 immunofluorescence read-out
T2 sequence (P30291 whole entry): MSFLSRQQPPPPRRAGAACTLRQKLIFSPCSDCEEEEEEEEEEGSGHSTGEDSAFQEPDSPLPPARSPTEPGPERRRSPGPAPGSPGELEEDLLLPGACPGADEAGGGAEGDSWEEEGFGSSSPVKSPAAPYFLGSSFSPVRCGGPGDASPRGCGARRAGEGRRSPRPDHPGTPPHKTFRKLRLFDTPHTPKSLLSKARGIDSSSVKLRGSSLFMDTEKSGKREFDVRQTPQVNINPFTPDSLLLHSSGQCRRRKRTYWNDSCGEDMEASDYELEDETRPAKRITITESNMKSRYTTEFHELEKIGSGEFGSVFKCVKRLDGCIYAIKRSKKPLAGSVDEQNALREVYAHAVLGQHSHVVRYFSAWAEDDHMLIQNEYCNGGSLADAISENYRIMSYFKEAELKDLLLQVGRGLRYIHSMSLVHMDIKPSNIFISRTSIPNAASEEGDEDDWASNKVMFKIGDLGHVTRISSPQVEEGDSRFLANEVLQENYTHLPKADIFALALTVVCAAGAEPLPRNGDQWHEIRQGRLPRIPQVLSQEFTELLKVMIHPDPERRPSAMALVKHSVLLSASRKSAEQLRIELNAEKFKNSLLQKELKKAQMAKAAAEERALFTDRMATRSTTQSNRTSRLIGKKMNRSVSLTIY
Put plainly: High-content imaging of pCdk1 Y15, Wee1A kinase target engagement in ACHN cells. It counts as cell-based. As to the method: Each of an ACHN renal cell carcinoma cell line (ATCC) and a DAOY medulloblastoma cell line, and an A427 lung cancer line were cultured in Minimum Essential Medium Eagle supplemented with 10% fetal calf serum (Sigma), 1% Penicillin-Streptomycin and 10 mM HEPES buffer (HyClone). Cell cultures were kept in a humidified incubator at 37 °C and 5% CO2. Cells were routinely tested for Mycoplasma contamination.
For target engagement assessment of Wee1A kinase inhibition, high-content imaging of ACHN renal cell carcinoma cells was used for quantification of CDK1 phosphorylated on tyrosine 15 by immunofluorescence (“IF”). 20,000 cells per well were seeded in tissue culture treated 96 well plates and treated with compounds at concentrations ranging from 7 to 5,000 nM or from 0.3 to 200 nM for 4h. Cells were fixated for 15 minutes in 4% paraformaldehyde solution, washed in PBS and permeabilized using 0.2% Triton X-100. Blocking was performed for 1 h at RT using Blocker FL Fluorescent Blocking Buffer (Thermo Scientific), thereafter cells were incubated with primary antibody (rabbit anti-pCDK1 Y^15, #4539, Cell Signaling Technology) at 4 °C ON. Alexa Fluor Plus 647 labelled goat anti-rabbit (A32733, Thermo Scientific) was used as secondary antibody. After washing in PBS, nuclei were stained with DAPI solution for 10 min at RT, protected from light. Cells were imaged using an ImageXpress Pico automated imaging system and CellReporter Xpress software (Molecular Devices). The percentage of cells with nuclear positivity for pCdk1 Y^15 compared to DMSO control was determined for each well and drug dose response curves and EC50 values were calculated and visualized using GraphPad Prism. Target engagement for Wee1A kinase can also be measured using the same AlphaLISA assay in OVCAR3 cells, an ovarian cancer cell line. NIH:OVCAR-3 (OVCAR3) cells are cultured in RPMI-1640 medium supplemented with 0.01 mg/ml insulin, 20% FBS, 1% Penicillin-Streptomycin and 10 mM HEPES buffer. 14,000 cells per well are seeded into 96 well tissue culture plates in full medium. Twenty-four hours post seeding, cells are treated with compound for 4 hours at concentrations ranging from 0.017 nM to 1000 nM.

Assay [3] deals with T3, Myt1 kinase (recombinant PMYT-1) (Homo sapiens, UniProt Q99640).
T3 construct: full length PMYT-1 was expressed by baculovirus in insect cells; purchased Invitrogen A30984; host or cells: insect cells (baculovirus)
T3 sequence (Q99640 1-499): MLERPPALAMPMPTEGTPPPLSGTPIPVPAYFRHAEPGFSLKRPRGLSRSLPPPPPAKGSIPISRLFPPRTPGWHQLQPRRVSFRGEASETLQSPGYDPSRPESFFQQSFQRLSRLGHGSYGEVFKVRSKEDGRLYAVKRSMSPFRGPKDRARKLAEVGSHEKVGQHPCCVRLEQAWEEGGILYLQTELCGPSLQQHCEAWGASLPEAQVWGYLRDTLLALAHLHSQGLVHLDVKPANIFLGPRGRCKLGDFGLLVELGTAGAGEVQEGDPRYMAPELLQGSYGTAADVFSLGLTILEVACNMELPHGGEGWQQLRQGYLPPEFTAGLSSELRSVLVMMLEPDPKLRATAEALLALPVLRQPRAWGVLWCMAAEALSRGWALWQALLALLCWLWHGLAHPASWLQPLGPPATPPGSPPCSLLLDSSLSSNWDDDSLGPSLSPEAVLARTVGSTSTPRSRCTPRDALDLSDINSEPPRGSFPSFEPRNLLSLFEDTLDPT
Nature of the assay: Myt1 kinase binding assay (LanthaScreen Eu Kinase Binding Assay). As to conditions: 3 nM tracer 178, 2.5 nM PMYT-1, 1 nM Eu-labeled antibody; read-out: Myt1 kinase Binding IC50. As to the method:
as §1
We used a LanthaScreen Europium (Eu) Kinase Binding Assay to determine the binding affinities (IC50) of compounds to Myt1 kinase. […] “NT” designates that the compound was not tested in this assay.
(In general: TR-FRET usually uses a lanthanide donor and a delayed reading to cut background.)

The mark [4] stands for this setting: 30 nM tracer 178, 5 nM Wee1A kinase, 2 nM Eu-labeled antibody, 60 minutes at room temperature, read-out: Wee1A kinase Binding IC50.
[5] abbreviates: 4 h treatment, nuclear positivity for pCdk1 Y15 vs DMSO control, read-out: CDK1 Tyr15 Phosphorylation EC50.
The mark [6] stands for this setting: read-out: CDK1 Tyr15 Phosphorylation EC50, 4 h treatment, nuclear positivity for pCdk1 Y15 vs DMSO control.

Structures are written as SMILES. Read-outs that look alike come from different tables or passages of the source. A value given as a limit tells only on which side of the number the result lay.

T1 sequence (P30291 whole entry): as the sequence (P30291 whole entry) above

Turning to `C=CCn1c(=O)c2cnc(Nc3ccnc(C)c3)nc2n1-c1cccc(OC2CCNCC2)c1` [Compound 222, 2-allyl-6-(2-methyl-4-pyridylamino)-1-[m-(4-piperidyloxy)phenyl]-1,2-dihydro-3H-1,2,5,7-tetraazainden-3-one], the IC50 in assay [1] (setting [4]) was less than 10 nM. Also, the EC50 in assay [2] (setting [5]) was more than 1000 nM.

Turning to `C=CCn1c(=O)c2cnc(Nc3cnn(C)c3)nc2n1-c1cccc(O[C@H]2C[C@@H]3CC[C@H]2CN3C)n1` [Compound 294, 6-[(1-methyl-1H-pyrazol-4-yl)amino]-1-(6-{[(1S,4S,5S)-2-methyl-2-azabicyclo[2.2.2]octan-5-yl]oxy}pyridin-2-yl)-2-(prop-2-en-1-yl)-1H,2H,3H-pyrazolo[3,4-d]pyrimidin-3-one], the IC50 in assay [1] (setting [4]) lay in the range of 10 to 100 nM.

As for `C=CCn1c(=O)c2cnc(Nc3ccc4c(cnn4C)c3)nc2n1-c1cccc(OC2CCN(C)C(C)C2)n1` [Compound 402, rel-2-allyl-1-(6-(((2R,4R)-1,2-dimethylpiperidin-4-yl)oxy)pyridin-2-yl)-6-((1-methyl-1H-indazol-5-yl)amino)-1,2-dihydro-3H-pyrazolo[3,4-d]pyrimidin-3-one], in assay [2] (setting [5]), the EC50 is less than 100 nM.

For `C=CCn1c(=O)c2cnc(Nc3cnn(C)c3)nc2n1-c1cccc(O[C@@H]2C[C@@H]3CC[C@H]2CN3C)n1` [Compound 295, 6-[(1-methyl-1H-pyrazol-4-yl)amino]-1-(6-{[(1S,4S,5R)-2-methyl-2-azabicyclo[2.2.2]octan-5-yl]oxy}pyridin-2-yl)-2-(prop-2-en-1-yl)-1H,2H,3H-pyrazolo[3,4-d]pyrimidin-3-one], the IC50 in assay [1] (setting [4]) lay in the range of 10 to 100 nM.

As to `C=CCn1c(=O)c2cnc(Nc3ccc(OC)nc3)nc2n1-c1cccc(OC2CCNCC2)n1` [Compound 251, 2-allyl-6-(6-methoxy-3-pyridylamino)-1-[6-(4-piperidyloxy)-2-pyridyl]-1,2-dihydro-3H-1,2,5,7-tetraazainden-3-one], the half-inhibitory concentration (IC50) in assay [1] (setting [4]) is less than 10 nM; in assay [3] it was 20 to 100 nM.

Turning to `C=CCn1c(=O)c2cnc(Nc3cnn(C)c3)nc2n1-c1cccc(OC2CCN(C)CC2)c1` [Compound 221, 2-allyl-1-[m-(1-methyl-4-piperidyloxy)phenyl]-6-(1-methyl-4-pyrazolylamino)-1,2-dihydro-3H-1,2,5,7-tetraazainden-3-one], in assay [1] (setting [4]), the IC50 is less than 10 nM. Moreover, the EC50 in assay [2] (setting [5]) is 500 to 1000 nM.

Regarding `C=CCn1c(=O)c2cnc(Nc3ccc(Cl)cc3)nc2n1-c1cccc(O[C@H]2CCCN(C)C2)n1` [Compound 162, 6-[(4-chlorophenyl)amino]-1-(6-{[(3S)-1-methylpiperidin-3-yl]oxy}pyridin-2-yl)-2-(prop-2-en-1-yl)-1H,2H,3H-pyrazolo[3,4-d]pyrimidin-3-one], the IC50 in assay [1] (setting [4]) fell in the range of 10 to 100 nM; in assay [3], 100 to 500 nM.

Consider `C=CCn1c(=O)c2cnc(Nc3ccc(Cl)cc3)nc2n1-c1cccc(N[C@H]2CCCN(C)C2)n1` [Compound 167, 1-{6-[(S)-1-methyl-3-piperidylamino]-2-pyridyl}-2-allyl-6-(p-chlorophenylamino)-1,2-dihydro-3H-1,2,5,7-tetraazainden-3-one], for which the IC50 in assay [1] (setting [4]) was in the range of 10 to 100 nM; in assay [3] it was 100 to 500 nM.

In the case of `C=CCn1c(=O)c2cnc(Nc3ccnc(C)c3)nc2n1-c1cccc(OC2CCN(C)CC2)c1` [Compound 219, 2-allyl-1-[m-(1-methyl-4-piperidyloxy)phenyl]-6-(2-methyl-4-pyridylamino)-1,2-dihydro-3H-1,2,5,7-tetraazainden-3-one], the IC50 in assay [1] (setting [4]) is less than 10 nM. Besides, the EC50 in assay [2] (setting [5]) fell in the range of 100 to 500 nM.

Regarding `CCn1c(=O)c2cnc(Nc3ccc4c(cnn4C)c3)nc2n1-c1cccc(N(C)C2CCNCC2)n1` [Compound 286, 1-[6-(N-methyl-N-4-piperidylamino)-2-pyridyl]-2-ethyl-6-(1-methyl-1H-indazol-5-ylamino)-1,2-dihydro-3H-1,2,5,7-tetraazainden-3-one], the IC50 in assay [1] is less than 10 nM. In addition, the EC50 in assay [2] (setting [6]) was more than 1000 nM.

`C=CCn1c(=O)c2cnc(Nc3ccc4c(cnn4C)c3)nc2n1-c1cccc(N(C)C2CCN(C)CC2)c1` [Compound 225, 1-{m-[N-methyl (1-methyl-4-piperidyl)amino]phenyl}-2-allyl-6-(1-methyl-1H-indazol-5-ylamino)-1,2-dihydro-3H-1,2,5,7-tetraazainden-3-one]: in assay [1], the IC50 is less than 10 nM. For the same compound, the EC50 in assay [2] (setting [6]) was more than 1000 nM.

For the compound `C=CCn1c(=O)c2cnc(Nc3ccc4ncccc4c3)nc2n1-c1cccc(OC2CCN(C)CC2)n1` [Compound 325, 2-allyl-1-[6-(1-methyl-4-piperidyloxy)-2-pyridyl]-6-(6-quinolylamino)-1,2-dihydro-3H-1,2,5,7-tetraazainden-3-one], the IC50 in assay [1] (setting [4]) was less than 10 nM; in assay [3], 20 to 100 nM.

Turning to `C=CCn1c(=O)c2cnc(Nc3cnn(C)c3)nc2n1-c1cccc(OC2CCNCC2)c1` [Compound 224, 2-allyl-6-(1-methyl-4-pyrazolylamino)-1-[m-(4-piperidyloxy)phenyl]-1,2-dihydro-3H-1,2,5,7-tetraazainden-3-one], the IC50 in assay [1] (setting [4]) is less than 10 nM. Also, in assay [2] (setting [5]), the EC50 is more than 1000 nM.

Regarding `C=CCn1c(=O)c2cnc(Nc3ccc4cnn(C)c4c3)nc2n1-c1cccc(OC2CCNCC2)n1` [Compound 359, 2-allyl-6-((1-methyl-1H-indazol-6-yl)amino)-1-(6-(piperidin-4-yloxy)pyridin-2-yl)-1,2-dihydro-3H-pyrazolo[3,4-d]pyrimidin-3-one], the IC50 in assay [1] (setting [4]) is less than 10 nM. Also, in assay [2] (setting [5]), the EC50 is less than 100 nM.

With `C=CCn1c(=O)c2cnc(Nc3ccc4c(cnn4C)c3)nc2n1-c1cccc(OC2CCN(C3COC3)CC2)n1` [Compound 349, 2-allyl-6-((1-methyl-1H-indazol-5-yl)amino)-1-(6-((1-(oxetan-3-yl)piperidin-4-yl)oxy)pyridin-2-yl)-1,2-dihydro-3H-pyrazolo[3,4-d]pyrimidin-3-one], the IC50 in assay [1] (setting [4]) is less than 10 nM. In addition, the EC50 in assay [2] (setting [5]) was less than 100 nM.
